Test results: paper PMC3873810, “Structure–Activity Relationship of Adenosine 5′-diphosphoribose at the Transient Receptor Potential Melastatin 2 (TRPM2) Channel: Rational Design of Antagonists” (Journal of Medicinal Chemistry, 2013)
“Also recorded” adds a separate entry of the source. Read-outs that look alike come from different tables or passages of the source. Values belong to the compound of their own block, whether it stands above or below them.

Key:
human TRPM2 = target: T1, human TRPM2 (Homo sapiens, UniProt O94759); test: Whole-cell patch clamp, antagonism of TRPM2 activation by 100 μM ADPR in HEK293 clone TRPM2#24; format: cell-based; details: for Antagonist activity at TRPM2, in words: analogue concentration not printed in the sentence (most analogues tested at 900 μM); for Mean outward current of 100 μM ADPR (1) infusion: mean ± SEM
T1 construct: Specific bands of full length TRPM2 (black arrow) and degradation products (gray arrows) are marked; expressed in transfected cells
T1 sequence (O94759 whole entry, the tested form may be a part): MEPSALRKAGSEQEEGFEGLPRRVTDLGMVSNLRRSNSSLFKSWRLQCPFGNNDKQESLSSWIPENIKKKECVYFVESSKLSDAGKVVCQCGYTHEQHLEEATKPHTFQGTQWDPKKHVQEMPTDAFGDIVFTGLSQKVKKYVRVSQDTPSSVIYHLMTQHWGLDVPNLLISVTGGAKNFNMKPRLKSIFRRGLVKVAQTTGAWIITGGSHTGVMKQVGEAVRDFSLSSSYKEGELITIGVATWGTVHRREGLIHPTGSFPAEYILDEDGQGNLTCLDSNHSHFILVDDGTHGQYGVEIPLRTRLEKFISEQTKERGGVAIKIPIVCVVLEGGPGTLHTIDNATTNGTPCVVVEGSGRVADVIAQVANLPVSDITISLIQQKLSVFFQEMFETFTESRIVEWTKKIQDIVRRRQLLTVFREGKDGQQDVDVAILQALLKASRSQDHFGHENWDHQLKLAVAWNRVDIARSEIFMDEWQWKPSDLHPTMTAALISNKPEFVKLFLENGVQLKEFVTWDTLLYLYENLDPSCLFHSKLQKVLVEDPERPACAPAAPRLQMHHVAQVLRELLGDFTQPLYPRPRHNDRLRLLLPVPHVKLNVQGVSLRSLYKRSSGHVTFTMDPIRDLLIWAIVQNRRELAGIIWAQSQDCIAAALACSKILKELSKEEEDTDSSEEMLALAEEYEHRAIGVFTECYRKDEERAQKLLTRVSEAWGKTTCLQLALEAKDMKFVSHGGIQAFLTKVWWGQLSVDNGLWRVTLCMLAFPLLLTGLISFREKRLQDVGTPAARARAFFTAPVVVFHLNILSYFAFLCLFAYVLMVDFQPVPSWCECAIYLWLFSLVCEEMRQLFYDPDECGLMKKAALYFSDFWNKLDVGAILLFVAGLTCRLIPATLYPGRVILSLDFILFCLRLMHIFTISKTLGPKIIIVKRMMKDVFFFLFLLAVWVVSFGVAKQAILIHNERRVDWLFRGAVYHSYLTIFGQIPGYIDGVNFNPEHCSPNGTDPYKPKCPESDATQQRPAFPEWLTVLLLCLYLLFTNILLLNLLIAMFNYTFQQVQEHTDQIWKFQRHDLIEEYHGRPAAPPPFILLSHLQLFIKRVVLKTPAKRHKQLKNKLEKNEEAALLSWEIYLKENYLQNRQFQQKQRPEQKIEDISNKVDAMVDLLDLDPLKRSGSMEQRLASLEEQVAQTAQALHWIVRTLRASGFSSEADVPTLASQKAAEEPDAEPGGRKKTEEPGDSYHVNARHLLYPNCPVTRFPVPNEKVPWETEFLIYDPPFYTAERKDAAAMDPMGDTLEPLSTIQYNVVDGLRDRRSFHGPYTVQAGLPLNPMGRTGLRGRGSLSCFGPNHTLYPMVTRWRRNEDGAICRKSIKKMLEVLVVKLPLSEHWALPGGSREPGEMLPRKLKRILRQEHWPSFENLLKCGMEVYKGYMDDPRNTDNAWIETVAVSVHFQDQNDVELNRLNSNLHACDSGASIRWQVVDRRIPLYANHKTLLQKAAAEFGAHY

human neutrophils = test: Chemotaxis (migration) of primary human neutrophils in fMLP gradient, μ-Slide Chemotaxis; format: cell-based; details: 50 nM fMLP gradient; fMLP alone, or with 1.5 mM EGTA, or with 100 μM 8-Ph-ADPR (5); 1 h tracking
TRPM2 channel = details: read-out: TRPM2 inhibition IC50; cited from earlier work
murine neutrophils = test system: murine neutrophils; design: method as in PMID 18025229; details: cited from earlier work
TRPM2 = test system: TRPM2; design: method as in PMID 20650899; details: even at 60-fold excess of 88 over 1; cited from earlier work
[1] = footnote d: could only be tested at 100 μM due to solubility difficulties, 100 μM ADPR, 0.1% DMSO, read-out: Antagonism at TRPM2 (IC50), result as symbol
[2] = analogue tested at 900 μM against 100 μM ADPR, footnote c: antagonistic effect observed but not statistically significant, read-out: Antagonism at TRPM2 (IC50), result as symbol
[3] = against 100 μM ADPR (1) in pipet solution, outward current at +15 mV, HEK293 clone TRPM2#24, read-out: Antagonism at TRPM2 (IC50)
[4] = analogue 100 μM, equimolar to 100 μM ADPR in pipet solution
[5] = analogue 900 μM with 100 μM ADPR in pipet solution

Compound: CCCCNc1c(NC[C@H]2O[C@@H](n3cnc4c(N)ncnc43)[C@H](O)[C@@H]2O)c(=O)c1=O [compound 66, 3-(5′-Amino-5′-deoxyadenosine)-4-butylamino-cyclobut-3-ene-1,2-dione]
IC50 (human TRPM2; [1]): > 900 µM

Compound: Nc1ncnc2c1ncn2[C@H]1C[C@H](O)[C@@H](COP(=O)(O)O)O1 [compound 31, 2′-deoxy-AMP, reference compound]
Antagonist activity at TRPM2, in words (human TRPM2; 100 μM ADPR): weak antagonist
IC50 (human TRPM2; [3]): 100 to 900 µM
Effect on activation of TRPM2 by ADPR (1), in words (human TRPM2; [4]): antagonist effect was lost
Effect on activation of TRPM2 by ADPR (1), in words (human TRPM2; [5]): suppressed activation of TRPM2

Compound: O=C(O)CN(CCOCCOCCN(CC(=O)O)CC(=O)O)CC(=O)O [EGTA, reference compound]
Center of mass ∥ (mean movement in the y direction along fMLP gradient) (human neutrophils): 32.6 μm

Compound: Nc1ncnc2c1ncn2[C@@H]1O[C@H](COP(=O)(O)OP(=O)(O)OC[C@H]2OC(O)[C@H](O)[C@@H]2O)[C@@H](O)[C@H]1O (stereo partly shown) [compound 1, Adenosine 5′-diphosphoribose]
Mean outward current of 100 μM ADPR (1) infusion (human TRPM2; control of the set of experiments for 4, n = 16): 1.13 ± 0.14 nA
Mean outward current of 100 μM ADPR (1) infusion (human TRPM2; control of the set of experiments for 5, n = 16): 1.17 ± 0.13 nA
Mean outward current of 100 μM ADPR (1) infusion (human TRPM2; control of the set of experiments for 6, n = 20): 1.70 ± 0.25 nA
Mean outward current of 100 μM ADPR (1) infusion (human TRPM2; control of the set of experiments for 7, n = 22): 1.25 ± 0.14 nA
Mean outward current of 100 μM ADPR (1) infusion (human TRPM2; control of the set of experiments for 84, n = 8): 1.44 ± 0.20 nA
Mean outward current of 100 μM ADPR (1) infusion (human TRPM2; control of the set of experiments for 86, n = 15): 1.23 ± 0.22 nA

Compound: copper ions
IC50 (TRPM2 channel): 2.6 µM

Compound: Nc1ncnc2c1nc(Br)n2[C@@H]1O[C@H](COP(=O)(O)OP(=O)(O)OC[C@H]2OC(O)[C@H](O)[C@@H]2O)[C@@H](O)[C@H]1O (stereo partly shown) [compound 4, 8-Br-ADPR, reference compound]
Effect on activation of TRPM2 by ADPR (1), in words (human TRPM2; [5]): significantly inhibited TRPM2 activation
Sensitivity of Ca2+ signalling and chemotaxis of murine neutrophils, in words (murine neutrophils): very sensitive

Compound: CCCCCCNc1c(NC[C@H]2O[C@@H](n3cnc4c(N)ncnc43)[C@H](O)[C@@H]2O)c(=O)c1=O [compound 67, 3-(5′-Amino-5′-deoxyadenosine)-4-(hexylamino)cyclobut-3-ene-1,2-dione]
IC50 (human TRPM2; [1]): > 900 µM

Compound: Nc1ncnc2c1ncn2[C@@H]1O[C@H](COP(=O)(O)OP(=O)(O)O)[C@@H](O)[C@H]1O [compound 44, adenosine 5′-diphosphate, reference compound]
Antagonist activity at TRPM2, in words (human TRPM2; 100 μM ADPR): inactive

Compound: Nc1ncnc2c1nc(Cl)n2[C@@H]1O[C@H](COP(=O)(O)O)[C@@H](O)[C@H]1O [compound 87, 8-Cl-AMP, reference compound]
Effect on activation of TRPM2 by ADPR (1), in words (human TRPM2; [5]): no antagonist effect
IC50 (human TRPM2; [2]): > 900 µM

Compound: Nc1ncnc2c1ncn2[C@@H]1O[C@H](COP(=O)(O)O)[C@@H](O)[C@H]1O [compound 88, adenosine 5′-monophosphate, reference compound]
Antagonist activity at TRPM2, in words (human TRPM2; 100 μM ADPR): no antagonist activity; also recorded: ineffective
Inhibition of ADPR-mediated currents, in words (TRPM2): not shown any inhibition

Compound: O=c1[nH]cnc2c1ccn2[C@@H]1O[C@H](COP(=O)(O)OP(=O)(O)OC[C@H]2OC(O)[C@H](O)[C@@H]2O)[C@@H](O)[C@H]1O (stereo partly shown) [compound 14, 7-Deaza-IDPR]
Antagonist activity at TRPM2, in words (human TRPM2; 100 μM ADPR): without significant effect
IC50 (human TRPM2; [2]): > 900 µM

The next lines start with results.

Antagonist activity at TRPM2, in words (human TRPM2; 100 μM ADPR): did not antagonize activation of TRPM2
IC50 (human TRPM2; [2]): > 900 µM
Compound: Nc1nc(F)nc2c1ncn2[C@@H]1O[C@H](COP(=O)(O)OP(=O)(O)OC[C@H]2OC(O)[C@H](O)[C@@H]2O)[C@@H](O)[C@H]1O (stereo partly shown) [compound 16, 2-F-ADPR]

IC50 (human TRPM2; [3]): 100 to 900 µM
Effect on activation of TRPM2 by ADPR (1), in words (human TRPM2; [4]): antagonist effect was lost
Effect on activation of TRPM2 by ADPR (1), in words (human TRPM2; [5]): suppressed activation of TRPM2
Compound: Nc1ncnc2c1nc(-c1ccc(CC(N)C(=O)O)cc1)n2[C@@H]1O[C@H](COP(=O)(O)O)[C@@H](O)[C@H]1O (stereo partly shown) [compound 9, 8-(4-(2-Aminopropanoic acid)phenyl)adenosine-5′-monophosphate]

Effect on activation of TRPM2 by ADPR (1), in words (human TRPM2; [4]): significant antagonist activity
Compound: Nc1ncnc2c1nc(-c1ccccc1)n2[C@@H]1O[C@H](COP(=O)(O)OP(=O)(O)OC2CCCC2)[C@@H](O)[C@H]1O [compound 84]

Effect on activation of TRPM2 by ADPR (1), in words (human TRPM2; [5]): partial inhibition
Compound: Nc1ncnc2c1ncn2[C@@H]1O[C@H](COP(=O)(O)OP(=O)(O)OC2CCCC2)[C@@H](O)[C@H]1O [compound 80, β-Cyclopentyl-ADP]

Effect on activation of TRPM2 by ADPR (1), in words (human TRPM2; [5]): noticeable antagonist activity
Compound: Nc1ncnc2c1ncn2[C@@H]1O[C@H](COS(=O)(=O)NC(=O)c2ccccc2O)[C@@H](O)[C@H]1O [compound 76, salicyl-adenosine monosulfamide]

IC50 (human TRPM2; [1]): > 900 µM
Compound: Nc1ncnc2c1ncn2[C@@H]1O[C@H](CNc2c(NC3CCCC3)c(=O)c2=O)[C@@H](O)[C@H]1O [compound 65, 3-(5′-Amino-5′-deoxyadenosine)-4-(cyclopentylamino)-cyclobut-3-ene-1,2-dione]

Antagonist activity at TRPM2, in words (human TRPM2; 100 μM ADPR): did not antagonize activation of TRPM2
IC50 (human TRPM2; [2]): > 900 µM
Compound: O=c1[nH]cnc2c1ncn2[C@@H]1O[C@H](COP(=O)(O)OP(=O)(O)OC[C@H]2OC(O)[C@H](O)[C@@H]2O)[C@@H](O)[C@H]1O (stereo partly shown) [compound 13, Inosine-5′-diphosphoribose]

IC50 (human TRPM2; [1]): > 900 µM
Compound: Nc1ncnc2c1ncn2[C@@H]1O[C@H](CNc2c(NC[C@H]3O[C@@H](O)[C@H](O)[C@@H]3O)c(=O)c2=O)[C@@H](O)[C@H]1O [compound 64, 3-(5′-Amino-5′-deoxyadenosine)-4-(5″-amino-5″-deoxy-β-D-ribofuranose)cyclobut-3-ene-1,2-dione]

IC50 (human TRPM2; [1]): > 900 µM
Compound: Nc1ncnc2c1nc(-c1ccccc1)n2[C@@H]1O[C@H](Cn2cc(COC[C@H]3OC(O)[C@H](O)[C@@H]3O)nn2)[C@@H](O)[C@H]1O (stereo partly shown) [compound 73, 1-(5′-Deoxy-8-phenyladenosine)-4-(2″,3″-O-isopropylidene-5″-O-methylribosyl)-1,2,3-triazole]
Effect on activation of TRPM2 by ADPR (1), in words (human TRPM2; [4]): none of these compounds showed antagonist activity

Effect on activation of TRPM2 by ADPR (1), in words (human TRPM2; [5]): some antagonist effect
IC50 (human TRPM2; [2]): > 900 µM
Compound: Nc1ncnc2c1ncn2[C@@H]1O[C@H](COP(=O)(O)OP(=O)(O)OP(=O)(O)OC[C@H]2OC(O)[C@H](O)[C@@H]2O)[C@@H](O)[C@H]1O (stereo partly shown) [compound 47, Adenosine Triphosphoribose]

Antagonism at TRPM2 (IC50) (human TRPM2; against 100 μM ADPR (1) in pipet solution, outward current at +15 mV, HEK293 clone TRPM2#24): upper micromolar range
Effect on activation of TRPM2 by ADPR (1), in words (human TRPM2; [4]): no inhibition
Effect on activation of TRPM2 by ADPR (1), in words (human TRPM2; [5]): nearly complete inhibition
Compound: Nc1ncnc2c1ncn2CCCCOP(=O)(O)OP(=O)(O)OC[C@H]1OC(O)[C@H](O)[C@@H]1O (stereo partly shown) [compound 30, 9-(4-Hydroxybutyl)adenine-5′-diphosphoribose]

Effect on activation of TRPM2 by ADPR (1), in words (human TRPM2; [5]): completely inhibited activation of TRPM2
Compound: Nc1ncnc2c1nc(-c1ccccc1)n2[C@H]1C[C@H](O)[C@@H](COP(=O)(O)OP(=O)(O)OC[C@H]2OC(O)[C@H](O)[C@@H]2O)O1 (stereo partly shown) [compound 86, 8-Phenyl-2′-deoxyadenosine-5′-diphosphoribose]
